SMILES strings stand for the structures.

This note sets out measurements from patent US9187431B2, “Substituted phenyl(oxy/thio)alkanol derivatives” (Bayer Intellectual Property GMBH, priority 2009, dated 2015).

In one data set the test system is Phakopsora pachyrhizi. The data set can be described thus: Phakopsora test (soya bean)/protective. Type of data set: in vivo, Phakopsora pachyrhizi on soya bean. Particulars: 250 ppm, protective, evaluation 11 days after inoculation.
Data set [1] concerns Abuthilon theophrasti (velvetleaf). The data set can be described thus: Phytoregulatory pre-emergence action, ABUTH. Particulars: 320 g of a.i./ha, visual assessment after approx. 3 weeks. Type of data set: in vivo. How it is done:
(§1) Phytoregulatory Pre-Emergence Action Seeds of monocotyledonous or dicotyledonous crop plants are placed in wood-fibre pots in sandy loam and covered with soil. […] After the treatment, the pots are placed in a greenhouse and kept under good growth conditions for the test plants. The visual assessment of the suppression of growth in the test plants is carried out after a trial period of approx. 3 weeks by comparison with untreated controls (phytoregulatory activity in percent: 100% activity=maximum inhibition of plant growth, 0% activity=plant growth like that of an untreated control.)

For another data set, the system named is Cochliobolus miyabeanus. The experiment in a line: Cochliobolus test (rice)/protective. Type of data set: in vivo, Cochliobolus miyabeanus on rice. To be noted: 500 ppm active compound, protective, evaluation 7 days after inoculation.
Data set [2] concerns Viola tricolor (wild pansy). The data set can be described thus: Phytoregulatory pre-emergence action, VIOTR. To be noted: 320 g of a.i./ha, visual assessment after approx. 3 weeks. Type of data set: in vivo. How it is done: as §1
A further data set has as its system Brassica napus (rape). The data set can be described thus: Phytoregulatory pre-emergence action, BRSNW. Type of data set: in vivo. Particulars: 320 g of a.i./ha, visual assessment after approx. 3 weeks. Here is the method: as §1
The test system of the next data set is Fusarium proliferatum. The data set can be described thus: microbe, parasite or virus in culture. Type of data set: cell-based. To be noted: 120 h, read-out: inhibition of fumonisin FB1 production.
In a further data set the test system is Fusarium graminearum. The data set can be described thus: microbe, parasite or virus in culture. Type of data set: cell-based. Particulars: 168 h, read-out: inhibition of DON/AcDON production.
The subject of another data set is Rhizoctonia solani. The experiment in a line: Rhizoctonia test (rice)/protective. Type of data set: in vivo, Rhizoctonia solani on rice. Particulars: 500 ppm active compound, protective, evaluation 4 days after inoculation. How it is done:
Rhizoctonia Test (Rice)/Protective [table] To produce a suitable preparation of active compound, 1 part by weight of active compound is mixed with the stated amount of solvent, and the concentrate is diluted with water and the stated amount of emulsifier to the desired concentration. To test for protective activity, young rice plants are sprayed with the preparation of active compound at the stated application rate. 1 day after the treatment, the plants are inoculated with hyphae of Rhizoctonia solani. The plants are then placed in a greenhouse at a relative atmospheric humidity of 100% and a temperature of 25° C.

Data set [3] has as its system Setaria viridis (green foxtail). The experiment in a line: Phytoregulatory pre-emergence action, SETVI. Particulars: 320 g of a.i./ha, visual assessment after approx. 3 weeks. It counts as in vivo. How it is done: as §1
In the next data set the test system is Pyricularia oryzae. Type of data set: in vivo, Pyricularia oryzae on rice. To be noted: 500 ppm active compound, protective, rice, evaluation 7 days after inoculation.
The subject of data set [4] is Triticum aestivum (common wheat). The data set can be described thus: Phytoregulatory pre-emergence action, TRZAS. It counts as in vivo. To be noted: 320 g of a.i./ha, visual assessment after approx. 3 weeks. Here is the method:
as §1

Data set [5] is classed as physicochemical. To be noted: pH 2.7. How it is done:
The log P values were measured according to EEC directive 79/831 Annex V.A8 by HPLC (High Performance Liquid Chromatography) on reversed-phase columns (C 18), using the methods below: [α] The LC-MS determination in the acidic range is carried out at pH 2.7 using the mobile phases 0.1% aqueous formic acid and acetonitrile (contains 0.1% formic acid), linear gradient from 10% acetonitrile to 95% acetonitrile

In turn, `CC(C)(C)C(O)(COc1ccc(Br)cc1F)Cn1cncn1` (stereo not drawn) [Compound 8] registered an efficacy with Phakopsora pachyrhizi of no less than 80%.

`Cc1cc(Br)ccc1OCC(O)(c1cncnc1)C(C)(C)C` (stereo not drawn) [Compound 12]: in [1], the “Inhibition of the growth of useful or harmful plants in %, ABUTH” value amounted to 80%. For the same molecule, the efficacy with Cochliobolus miyabeanus, with Rhizoctonia solani and with Pyricularia oryzae was no less than 80% each time. For the same molecule, the “Inhibition of the growth of useful or harmful plants in %, VIOTR” value in [2] is 90%. The “Inhibition of the growth of useful or harmful plants in %, BRSNW” value in the data set with Brassica napus (rape) was 60%. Also, the inhibition at 50 µM with Fusarium proliferatum and with Fusarium graminearum was greater than 80% in each case. Besides, the “Inhibition of the growth of useful or harmful plants in %, SETVI” value in data set [3] came out at 90%. Moreover, the “Inhibition of the growth of useful or harmful plants in %, TRZAS” value in [4] is 50%.

On to `CC(C)(C)C(O)(COc1ccc(Br)c(F)c1F)c1cncnc1` (stereo not drawn) [Compound 13], for which the inhibition at 50 µM with Fusarium proliferatum and in the data set with Fusarium graminearum was greater than 80% each time.

As for `Cc1cc(OCC(O)(Cn2cncn2)C(C)(C)C)ccc1Br` (stereo not drawn) [Compound 19], in data set [5], the logP result was “logP 3.41 ^[a], [M]^+ = 370/372”.

On to `COc1cc(Br)ccc1OCC(O)(Cn1cncn1)C(C)(C)C` (stereo not drawn) [Compound 20], for which, in [5], the logP result is “logP 3.09 ^[a], [M]^+ = 386/388”.

In the case of `CC(C)(C)C(O)(COc1c(Cl)cc(Br)cc1Cl)Cn1cncn1` (stereo not drawn) [Compound 21], the logP result in [5] was “logP 4.04 ^[a], [M]^+ = 423.9/426”.

For `Cc1cc(Br)ccc1OCC(O)(Cn1cncn1)C(C)(C)C` (stereo not drawn) [Compound 22], the logP entry in data set [5] was “logP 3.5 ^[a], [M]^+ = 370/372”.

For the molecule `Cc1cc(OCC(O)(Cn2cncn2)C(C)(C)C)cc(C)c1Br` (stereo not drawn) [Compound 23], the logP result in data set [5] was “logP 3.85 ^[a], [M]^+ = 384/386”.

Regarding `Cc1cc(Br)cc(C)c1OCC(O)(Cn1cncn1)C(C)(C)C` (stereo not drawn) [Compound 24], the logP result in data set [5] is “logP 3.85 ^[a], [M]^+ = 384/386”.

Consider `Cc1cc(Br)cc(Cl)c1OCC(O)(Cn1cncn1)C(C)(C)C` (stereo not drawn) [Compound 25], for which the logP result in data set [5] was “logP 3.99 ^[a], [M]^+ = 403.9/407”.

Take `CC(C)(C)C(O)(COc1ccc(Br)cc1Cl)Cn1cncn1` (stereo not drawn) [Compound 26]: in [5], the logP entry was “logP 3.59 ^[a], [M]^+ = 389.9/393”.

Regarding `COc1cc(OCC(O)(Cn2cncn2)C(C)(C)C)ccc1Br` (stereo not drawn) [Compound 27], in data set [5], the logP entry was “logP 2.92 ^[a], [M]^+ = 386/388”.

With `CC(C)(C)C(O)(COc1c(F)cc(Br)cc1Cl)Cn1cncn1` (stereo not drawn) [Compound 28], the logP entry in data set [5] is “logP 3.76 ^[a], [M]^+ =407.9/411”.

Consider `CC(C)(C)C(O)(COc1cc(F)c(Br)cc1F)Cn1cncn1` (stereo not drawn) [Compound 29], for which the logP result in [5] was “logP 3.21 ^[a], [M]^+ = 392/394”.

For `CC(C)(C)C(O)(COc1ccc(Br)c(F)c1)Cn1cncn1` (stereo not drawn) [Compound 30], in data set [5], the logP entry is “logP 3.13 ^[a], [M]^+ = 374/376”.

For the molecule `CC(C)(C)C(O)(COc1c(F)cc(Br)cc1F)Cn1cncn1` (stereo not drawn) [Compound 31], the logP result in data set [5] was “logP 3.37 ^[a], [M]^+ = 392/394”.

`CC(C)(C)C(O)(COc1ccc(Br)c(C(F)(F)F)c1)Cn1cncn1` (stereo not drawn) [Compound 32]: the logP result in data set [5] was “logP 3.59 ^[a], [M]^+ = 424/426”.

Regarding `CC(C)(C)C(O)(COc1cc(F)c(Br)c(F)c1)Cn1cncn1` (stereo not drawn) [Compound 33], the logP entry in data set [5] was “logP 3.25 ^[a], [M]^+ = 392/394”.

On to `CC(C)(C)C(O)(COc1ccc(Br)c(F)c1F)Cn1cncn1` (stereo not drawn) [Compound 34], for which the logP entry in [5] is “logP 3.29 ^[a], [M]^+ = 392/394”.

On to `CC(C)(C)C(O)(COc1ccc(Br)c(OC(F)(F)F)c1)Cn1cncn1` (stereo not drawn) [Compound 35], for which, in data set [5], the logP result was “logP 3.72^[a], [M]^+ = 440/441”.

As to `Cc1cc(OCC(O)(Cn2cncn2)C(C)(C)C)c(C)cc1I` (stereo not drawn) [Compound 36], the logP result in data set [5] was “logP 4.15 ^[a], [M]^+ = 430/432”.

As to `Cc1cc(OCC(O)(Cn2cncn2)C(C)(C)C)cc(C)c1I` (stereo not drawn) [Compound 37], the logP result in data set [5] was “logP 4.04 ^[a], [M]^+ = 430/432”.

`Cc1cc(I)cc(C)c1OCC(O)(Cn1cncn1)C(C)(C)C` (stereo not drawn) [Compound 38]: the logP result in data set [5] was “logP 4.04 ^[a], [M]^+ = 430/432”.

Turning to `Cc1cc(OCC(O)(Cn2cncn2)C2(C)CC2)cc(C)c1Br` (stereo not drawn) [Compound 39], the logP entry in [5] is “logP 3.5 ^[a], [M]^+ = 382/384”.

For the molecule `Cc1cc(Br)cc(Cl)c1OCC(O)(Cn1cncn1)C1(C)CC1` (stereo not drawn) [Compound 40], the logP result in data set [5] was “logP 3.68 ^[a], [M]^+ = 402/405”.

In the case of `CC1(C(O)(COc2ccc(Br)cc2Cl)Cn2cncn2)CC1` (stereo not drawn) [Compound 41], in data set [5], the logP entry is “logP 3.22 ^[a], [M]^+ = 388/391”.

For the molecule `COc1cc(OCC(O)(Cn2cncn2)C2(C)CC2)ccc1Br` (stereo not drawn) [Compound 42], in data set [5], the logP result is “logP 2.67 ^[a], [M]^+ = 384/386”.

In the case of `CC1(C(O)(COc2cc(F)c(Br)c(F)c2)Cn2cncn2)CC1` (stereo not drawn) [Compound 43], the logP result in data set [5] is “logP 2.95 ^[a], [M]^+ = 390/391”.

Take `CC1(C(O)(COc2ccc(Br)c(F)c2F)Cn2cncn2)CC1` (stereo not drawn) [Compound 44]: the logP result in [5] was “logP 2.95 ^[a], [M]^+ = 390/391”.

On to `Cc1cc(OCC(O)(Cn2cncn2)C2(C)CC2)c(C)cc1I` (stereo not drawn) [Compound 45], for which the logP entry in data set [5] was “logP 3.76 ^[a], [M]^+ = 428/430”.

Consider `Cc1cc(OCC(O)(Cn2cncn2)C2(C)CC2)cc(C)c1I` (stereo not drawn) [Compound 46], for which the logP entry in data set [5] was “logP 3.68 ^[a], [M]^+ = 428/430”.

`Cc1cc(I)ccc1OCC(O)(Cn1cncn1)C1(C)CC1` (stereo not drawn) [Compound 47]: the logP entry in [5] was “logP 3.37 ^[a], [M]^+ = 414/416”.

`Cc1cc(OCC(O)(Cn2cncn2)C2(C)CC2)ccc1Br` (stereo not drawn) [Compound 48]: the logP entry in data set [5] was “logP 3.1 ^[a], [M]^+ = 368/369”.

In the case of `CC(C)(C)C(O)(COc1ccc(Cl)cc1Cl)c1cncnc1` (stereo not drawn) [EP-A 0 028 755, Example 5, reference compound], in [1], the “Inhibition of the growth of useful or harmful plants in %, ABUTH” value was found to be 40%. In addition, the “Inhibition of the growth of useful or harmful plants in %, VIOTR” value in [2] is on record as 90%. In the data set with Brassica napus (rape), the “Inhibition of the growth of useful or harmful plants in %, BRSNW” value is recorded as 60%. In addition, the “Inhibition of the growth of useful or harmful plants in %, SETVI” value in data set [3] stood at 80%. Also, the “Inhibition of the growth of useful or harmful plants in %, TRZAS” value in data set [4] was 40%.
